# Reference: PubChem BioAssay AID256 (DTP/NCI, 2004)
# Values joined by “and” are separate entries in the source; they are usually repeats but may differ in a detail not shown here. Equal values may be shown once. Inconclusive results and toxic doses are left out.
# Test system: CD2F1 mice, L1210 leukemia ip, survival T/C
# Experiment: NCI In Vivo Anticancer Drug Screen. Data for tumor model L1210 Leukemia (intraperitoneal) in CD2F1 (CDF1) mice
# Conditions: higher = longer survival
# Procedure, shortened: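 Ratio T/C, where T is the treated-group value and C the vehicle-dosed control value, from mice implanted with a transplantable tumor.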
# [1] = endpoint: mean survival time, dose: 25.0 mg/kg/injection, schedule: Q04DX003 (ip), vehicle: saline
# [2] = endpoint: mean survival time, dose: 50.0 mg/kg/injection, schedule: Q04DX003 (ip), vehicle: saline
# [3] = endpoint: mean survival time, dose: 100.0 mg/kg/injection, schedule: Q04DX003 (ip), vehicle: saline
# [4] = endpoint: mean survival time, dose: 100.0 mg/kg/injection, schedule: Q01DX009 (ip), vehicle: saline
# [5] = endpoint: mean survival time, dose: 200.0 mg/kg/injection, schedule: Q01DX009 (ip), vehicle: saline
# [6] = endpoint: mean survival time, dose: 100.0 mg/kg/injection, schedule: Q01DX009 (ip), vehicle: saline with Tween-80
# [7] = endpoint: mean survival time, dose: 100.0 mg/kg/injection, schedule: Q04DX003 (ip), vehicle: saline with Tween-80
# [8] = endpoint: mean survival time, dose: 200.0 mg/kg/injection, schedule: Q01DX009 (ip), vehicle: saline with Tween-80
# [9] = endpoint: mean survival time, dose: 200.0 mg/kg/injection, schedule: Q04DX003 (ip), vehicle: saline with Tween-80
# [10] = endpoint: mean survival time, dose: 400.0 mg/kg/injection, schedule: Q04DX003 (ip), vehicle: saline with Tween-80
# [11] = endpoint: mean survival time, dose: 50.0 mg/kg/injection, schedule: Q01DX009 (ip), vehicle: Klucel (hydroxypropylcellulose) (HPC)
# [12] = endpoint: mean survival time, dose: 100.0 mg/kg/injection, schedule: Q01DX009 (ip), vehicle: Klucel (hydroxypropylcellulose) (HPC)
# [13] = endpoint: mean survival time, dose: 400.0 mg/kg/injection, schedule: Q01DX009 (ip), vehicle: saline with Tween-80
structure (smiles),measurement,setting,value
CN(C)/N=C(\CBr)c1ccccc1,T/C,"endpoint: mean survival time, dose: 50.0 mg/kg/injection, schedule: Q01DX009 (ip), vehicle: saline sonified",96 % of control
same,T/C,"endpoint: mean survival time, dose: 100.0 mg/kg/injection, schedule: Q01DX001 (ip), vehicle: saline",102 % of control
same,T/C,"endpoint: mean survival time, dose: 100.0 mg/kg/injection, schedule: Q01DX009 (ip), vehicle: saline sonified",103 % of control
same,T/C,"endpoint: mean survival time, dose: 200.0 mg/kg/injection, schedule: Q01DX001 (ip), vehicle: saline",100 % of control
CC#CCOCC(O)CO (configuration not stated),T/C,"endpoint: mean survival time, dose: 25.0 mg/kg/injection, schedule: Q01DX009 (ip), vehicle: water",98 % of control
same,T/C,"endpoint: mean survival time, dose: 50.0 mg/kg/injection, schedule: Q01DX009 (ip), vehicle: water",107 % of control
same,T/C,"endpoint: mean survival time, dose: 100.0 mg/kg/injection, schedule: Q01DX009 (ip), vehicle: water",104 % of control
same,T/C,"endpoint: mean survival time, dose: 200.0 mg/kg/injection, schedule: Q01DX009 (ip), vehicle: water",115 % of control
Cc1cccc[n+]1CC(=O)c1ccccc1,T/C,[1],104 % of control
same,T/C,[2],96 % of control
same,T/C,[3],96 % of control
Nc1ccn(C2OC(CO)C(O)C2O)c(=O)n1 (configuration not stated),T/C,"endpoint: mean survival time, dose: 8.0 mg/kg/injection, schedule: Q X X004 (other), vehicle: saline",86 % of control
same,T/C,"endpoint: mean survival time, dose: 16.0 mg/kg/injection, schedule: Q01DX008 (ip), vehicle: saline",95 % of control
same,T/C,"endpoint: mean survival time, dose: 16.0 mg/kg/injection, schedule: Q03HX024 (oral), vehicle: saline",100 % of control
same,T/C,"endpoint: mean survival time, dose: 30.0 mg/kg/injection, schedule: Q03HX024 (ip), vehicle: saline",93 % of control
same,T/C,"endpoint: mean survival time, dose: 32.0 mg/kg/injection, schedule: Q01DX008 (ip), vehicle: saline",93 % of control
same,T/C,"endpoint: mean survival time, dose: 32.0 mg/kg/injection, schedule: Q01DX008 (oral), vehicle: saline",100 % of control
same,T/C,"endpoint: mean survival time, dose: 64.0 mg/kg/injection, schedule: Q01DX008 (ip), vehicle: saline",98 % of control
same,T/C,"endpoint: mean survival time, dose: 64.0 mg/kg/injection, schedule: Q01DX008 (oral), vehicle: saline",98 % of control
same,T/C,[4],100 % of control
same,T/C,[3],96 % of control
same,T/C,"endpoint: mean survival time, dose: 128.0 mg/kg/injection, schedule: Q01DX001 (ip), vehicle: saline",120 % of control
same,T/C,"endpoint: mean survival time, dose: 128.0 mg/kg/injection, schedule: Q01DX008 (ip), vehicle: saline",95 % of control
same,T/C,"endpoint: mean survival time, dose: 128.0 mg/kg/injection, schedule: Q03HX024 (oral), vehicle: saline",110 % of control and 95 % of control
same,T/C,"endpoint: mean survival time, dose: 128.0 mg/kg/injection, schedule: Q04DX003 (ip), vehicle: saline",98 % of control
same,T/C,"endpoint: mean survival time, dose: 128.0 mg/kg/injection, schedule: Q04DX003 (oral), vehicle: saline",120 % of control and 100 % of control
same,T/C,[5],93 % of control
same,T/C,"endpoint: mean survival time, dose: 256.0 mg/kg/injection, schedule: Q01DX001 (ip), vehicle: saline",91 % of control
same,T/C,"endpoint: mean survival time, dose: 256.0 mg/kg/injection, schedule: Q01DX001 (oral), vehicle: saline",98 % of control
same,T/C,"endpoint: mean survival time, dose: 256.0 mg/kg/injection, schedule: Q01DX009 (ip), vehicle: saline",91 % of control
same,T/C,"endpoint: mean survival time, dose: 256.0 mg/kg/injection, schedule: Q04DX003 (oral), vehicle: saline",98 % of control
same,T/C,"endpoint: mean survival time, dose: 512.0 mg/kg/injection, schedule: Q01DX001 (ip), vehicle: saline",120 % of control and 97 % of control
same,T/C,"endpoint: mean survival time, dose: 512.0 mg/kg/injection, schedule: Q01DX001 (oral), vehicle: saline",100 % of control
same,T/C,"endpoint: mean survival time, dose: 512.0 mg/kg/injection, schedule: Q04DX003 (ip), vehicle: saline",96 % of control
same,T/C,"endpoint: mean survival time, dose: 600.0 mg/kg/injection, schedule: Q04DX002 (ip), vehicle: saline",94 % of control
same,T/C,"endpoint: mean survival time, dose: 1024.0 mg/kg/injection, schedule: Q01DX001 (ip), vehicle: saline",90 % of control
same,T/C,"endpoint: mean survival time, dose: 1024.0 mg/kg/injection, schedule: Q01DX009 (ip), vehicle: saline",95 % of control
same,T/C,"endpoint: mean survival time, dose: 1024.0 mg/kg/injection, schedule: Q01DX009 (oral), vehicle: saline",98 % of control
same,T/C,"endpoint: mean survival time, dose: 1024.0 mg/kg/injection, schedule: Q04DX003 (oral), vehicle: saline",100 % of control
same,T/C,"endpoint: mean survival time, dose: 1200.0 mg/kg/injection, schedule: Q04DX002 (ip), vehicle: saline",91 % of control
same,T/C,"endpoint: mean survival time, dose: 2400.0 mg/kg/injection, schedule: Q04DX003 (ip), vehicle: saline",96 % of control
O=[N+]([O-])c1ccc(Cl)c(CCl)c1,T/C,[6],94 % of control
same,T/C,[7],100 % of control
same,T/C,[8],93 % of control
same,T/C,[9],100 % of control
same,T/C,[10],102 % of control
Cc1ncc(CO)n1C,T/C,[11],94 % of control
same,T/C,[12],105 % of control
same,T/C,"endpoint: mean survival time, dose: 200.0 mg/kg/injection, schedule: Q01DX009 (ip), vehicle: Klucel (hydroxypropylcellulose) (HPC)",105 % of control
NC(=O)NC(=S)NC(=O)c1ccccc1,T/C,[6],111 % of control
same,T/C,[7],102 % of control
same,T/C,[8],98 % of control
same,T/C,[9],98 % of control
same,T/C,[13],98 % of control
same,T/C,[10],101 % of control
CC(=O)C1CCC2C3CC=C4CC(SC(=N)N)CCC4(C)C3CCC12C (configuration not stated),T/C,"endpoint: mean survival time, dose: 75.0 mg/kg/injection, schedule: Q01DX001 (ip), vehicle: steriod suspending solution",102 % of control
same,T/C,"endpoint: mean survival time, dose: 150.0 mg/kg/injection, schedule: Q01DX001 (ip), vehicle: steriod suspending solution",104 % of control
same,T/C,"endpoint: mean survival time, dose: 300.0 mg/kg/injection, schedule: Q01DX001 (ip), vehicle: steriod suspending solution",91 % of control
O=S(=O)(CCBr)CCBr,T/C,[6],95 % of control
same,T/C,[7],109 % of control
same,T/C,[8],86 % of control
same,T/C,[9],107 % of control
same,T/C,[13],100 % of control
same,T/C,[10],88 % of control
O=C1C2CCN(CC2)C1CN1CCOCC1 (configuration not stated),T/C,"endpoint: mean survival time, dose: 12.5 mg/kg/injection, schedule: Q04DX003 (ip), vehicle: saline",96 % of control
same,T/C,[1],100 % of control
same,T/C,[2],111 % of control
CCNCC,T/C,[4],100 % of control
same,T/C,[5],94 % of control
same,T/C,"endpoint: mean survival time, dose: 400.0 mg/kg/injection, schedule: Q01DX009 (ip), vehicle: saline",105 % of control
O=C(O)/C=C\C(=O)Nc1ccc(Cl)cc1Cl,T/C,[6],103 % of control
same,T/C,[8],95 % of control
F[Si](c1ccccc1)(c1cccc2ccccc12)c1cccc2ccccc12,T/C,[6],96 % of control
same,T/C,[8],100 % of control
same,T/C,[13],95 % of control
CCCOCCN=C(N)C(N)=NCCOCCC,T/C,"endpoint: mean survival time, dose: 12.5 mg/kg/injection, schedule: Q04DX002 (ip), vehicle: saline with Tween-80",97 % of control
same,T/C,"endpoint: mean survival time, dose: 25.0 mg/kg/injection, schedule: Q04DX002 (ip), vehicle: saline with Tween-80",89 % of control
same,T/C,"endpoint: mean survival time, dose: 50.0 mg/kg/injection, schedule: Q04DX002 (ip), vehicle: saline with Tween-80",97 % of control
COC12CCCC1S(=O)(=O)C2 (configuration not stated),T/C,[1],101 % of control
same,T/C,[2],108 % of control
same,T/C,[3],95 % of control
C=C1C(=O)OC2CC(C)C3C4OC4C(O)C3(C)C(O)C12 (configuration not stated),T/C,"endpoint: median survival time, dose: 3.12 mg/kg/injection, schedule: Q01DX009 (ip), vehicle: saline",97 % of control
same,T/C,"endpoint: median survival time, dose: 6.25 mg/kg/injection, schedule: Q01DX009 (ip), vehicle: saline",113 % of control
same,T/C,"endpoint: median survival time, dose: 12.5 mg/kg/injection, schedule: Q01DX009 (ip), vehicle: saline",101 % of control
same,T/C,"endpoint: median survival time, dose: 25.0 mg/kg/injection, schedule: Q01DX009 (ip), vehicle: saline",107 % of control
same,T/C,"endpoint: median survival time, dose: 50.0 mg/kg/injection, schedule: Q01DX009 (ip), vehicle: saline",109 % of control
same,T/C,"endpoint: median survival time, dose: 100.0 mg/kg/injection, schedule: Q01DX009 (ip), vehicle: saline",124 % of control
S=C(Nc1ccc(Cl)c(Cl)c1)SCc1ccc2c(c1)OCO2,T/C,"endpoint: mean survival time, dose: 18.7 mg/kg/injection, schedule: Q01DX009 (ip), vehicle: suspension in saline",107 % of control
same,T/C,"endpoint: mean survival time, dose: 37.5 mg/kg/injection, schedule: Q01DX009 (ip), vehicle: suspension in saline",108 % of control
same,T/C,"endpoint: mean survival time, dose: 75.0 mg/kg/injection, schedule: Q01DX009 (ip), vehicle: suspension in saline",107 % of control
same,T/C,"endpoint: mean survival time, dose: 150.0 mg/kg/injection, schedule: Q01DX009 (ip), vehicle: suspension in saline",111 % of control
COc1ccc(N=NN(C)C(=O)c2ccccc2)cc1,T/C,[11],107 % of control
same,T/C,[12],117 % of control
same,T/C,"endpoint: mean survival time, dose: 400.0 mg/kg/injection, schedule: Q01DX009 (ip), vehicle: Klucel (hydroxypropylcellulose) (HPC)",161 % of control
CC1=[C-]C=CS1=O.[C-]#[O+].[C-]#[O+].[C-]#[O+].[Mo].[c-]1[c-][c-][cH-][c-]1 (configuration not stated),T/C,"endpoint: mean survival time, dose: 9.38 mg/kg/injection, schedule: Q04DX002 (ip), vehicle: saline with Tween-80",96 % of control
same,T/C,"endpoint: mean survival time, dose: 18.7 mg/kg/injection, schedule: Q04DX002 (ip), vehicle: saline with Tween-80",96 % of control
same,T/C,"endpoint: mean survival time, dose: 37.5 mg/kg/injection, schedule: Q04DX002 (ip), vehicle: saline with Tween-80",100 % of control
